Results as given in patent US20160075653A1, “NEMATICIDAL N-(PHENYLCYCLOALKYL)CARBOXAMIDES AND N-(PHENYLCYCLOALKYL)THIOCARBOXAMIDES” (BAYER CROPSCIENCE AKTIENGESELLSCHAFT, priority 2013, published 2016).
Like-named read-outs stand apart in the source and are kept apart here.

Tests used:
Meloidogyne incognita = Meloidogyne incognita test (MELGIN), gall formation on salad seedlings; assay type: in vivo; settings: application rate 20 ppm, after 14 days
Protocol: Meioidovnve incomita—Test (MELGIN)
Solvent: 125.0 parts by weight of acetone
To produce a suitable preparation of active compound, 1 part by weight of active compound is mixed with the stated amount of solvent, and the concentrate is diluted with water to the desired concentration.
Vessels are filled with sand, a solution of the active ingredient, a suspension containing eggs and larvae of the southern root-knot nematode (Meloidogyne incognita) and salad seeds. The salad seeds germinate and the seedlings grow. Galls develop in the roots.
After 14 days the nematicidal activity is determined on the basis of the percentage of gall formation. 100% means that no galls were found; 0% means the number of galls found on the roots of the treated plants was equal to that in untreated control plants.

[1] = Measurement of log P values by HPLC on reversed phase columns (methods [a] pH 2.3, [b] pH 2.7, [c] pH 7.8); assay type: physicochemical; settings: for chromatographic logP: reversed phase HPLC columns
Method in brief: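 Determined per EEC Directive 79/831 Annex V.A8 by reversed-phase HPLC, 10-95% acetonitrile gradient: [a] pH 2.3, 0.1% phosphoric acid; [b] LC-MS, pH 2.7, 0.1% formic acid; [c] LC-MS, pH 7.8, 0.001 molar ammonium hydrogen carbonate. Calibrated with C3-C16 alkan-2-ones by retention-time interpolation.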

[2] = HPLC on reversed phase columns, method [b], pH 2.7
[3] = HPLC reversed phase, method [b] (pH 2.7)

SMILES	nematicidal activity (percentage of gall formation; 100% = no galls) (Meloidogyne incognita)	logP [1, 3]	also measured
CSc1ccccc1C(=O)N[C@@H]1CCC[C@@H]1c1ccc(F)c(F)c1 (relative stereo) [Compound 82]	90%		logP [1, 2]: 3.35^[b]
CCCOc1ccccc1C(=O)N[C@@H]1CCC[C@@H]1c1ccc(F)c(F)c1 (relative stereo) [Compound 86]	90%		logP [1, 2]: 4.19^[b]
CCOc1ccccc1C(=O)N[C@@H]1CCC[C@@H]1c1ccc(F)c(F)c1 (relative stereo) [Compound 115]	90%		logP [1, 2]: 3.80^[b]
O=C(N[C@@H]1CC[C@@H]1c1ccccc1Cl)c1ncccc1Cl (relative stereo) [Compound 247, cis-3-chloro-N-[2-(2-chlorophenyl)cyclobutyl]pyridine-2-carboxamide]	100%		chromatographic logP ([1]; HPLC-MS, method letter not given, read-out: log P): 2.79; chromatographic logP ([1]; pH 2.7, HPLC reversed phase, method [b] (pH 2.7), read-out: logP): 2.79
O=C(N[C@@H]1CC[C@@H]1c1ccccc1Cl)c1ccccc1Cl (relative stereo) [Compound 248]	90%	3.08^[b]	
O=C(N[C@@H]1CC[C@@H]1c1ccccc1Cl)c1ccccc1I (relative stereo) [Compound 250]	100%	3.23^[b]	
O=C(N[C@@H]1CC[C@@H]1c1ccccc1Cl)c1ccccc1C(F)(F)F (relative stereo) [Compound 251]	100%	3.23^[b]	
O=C(N[C@@H]1CC[C@@H]1c1ccccc1Cl)c1c(F)cccc1F (relative stereo) [Compound 252]	100%	2.86^[b]	
O=C(N[C@@H]1CC[C@@H]1c1ccccc1Cl)c1ccccc1Br (relative stereo) [Compound 253]	100%	3.18^[b]	
O=C(N[C@@H]1CC[C@@H]1c1ccccc1Cl)c1cccnc1C(F)(F)F (relative stereo) [Compound 254]	90%	2.69^[b]	
O=C(N[C@@H]1CC[C@H]1c1ccc(Cl)cc1Cl)c1ccccc1Cl (relative stereo) [Compound 256]	90%	3.90^[b]	
O=C(N[C@@H]1CC[C@@H]1c1ccc(Cl)cc1Cl)c1ncccc1Cl (relative stereo) [Compound 260]	100%	3.28^[b]	
O=C(N[C@@H]1CC[C@@H]1c1ccc(Cl)cc1Cl)c1ccccc1Cl (relative stereo) [Compound 261]	100%	3.45^[b]	
O=C(N[C@@H]1CC[C@H]1c1ccc(F)cc1C(F)(F)F)c1cccnc1C(F)(F)F (relative stereo) [Compound 487]	90%	3.20^[b]	
O=C(N[C@@H]1CC[C@@H]1c1ccc(F)cc1C(F)(F)F)c1cccnc1C(F)(F)F (relative stereo) [Compound 489]	100%	3.02^[b]	
O=C(N[C@@H]1CC[C@@H]1c1ccc(F)cc1C(F)(F)F)c1ccccc1Br (relative stereo) [Compound 491]	100%	3.39^[b]	
O=C(N[C@@H]1CC[C@@H]1c1ccc(F)cc1C(F)(F)F)c1c(F)cccc1F (relative stereo) [Compound 493]	100%	3.18^[b]	
O=C(N[C@@H]1CC[C@H]1c1ccc(F)cc1C(F)(F)F)c1ccccc1C(F)(F)F (relative stereo) [Compound 494]	90%	3.72^[b]	
O=C(N[C@@H]1CC[C@@H]1c1ccc(F)cc1C(F)(F)F)c1ccccc1C(F)(F)F (relative stereo) [Compound 495]	100%	3.51^[b]	
O=C(N[C@@H]1CC[C@H]1c1ccc(F)cc1C(F)(F)F)c1ccccc1Br (relative stereo) [Compound 501]	100%	3.64^[b]	
O=C(N[C@@H]1CC[C@@H]1c1ccc(F)cc1C(F)(F)F)c1ccccc1I (relative stereo) [Compound 503]	100%	3.50^[b]	
O=C(N[C@@H]1CC[C@@H]1c1ccc(F)cc1C(F)(F)F)c1ccccc1 (relative stereo) [Compound 505]	90%	2.97^[b]	

SMILES	nematicidal activity (percentage of gall formation; 100% = no galls) (Meloidogyne incognita)	logP [1, 3]	also measured
O=C(N[C@@H]1CC[C@@H]1c1ccc(F)cc1C(F)(F)F)c1ccccc1Cl (relative stereo) [Compound 509]	100%	3.34^[b]	
O=C(N[C@@H]1CC[C@@H]1c1ccc(F)cc1C(F)(F)F)c1cccnc1Cl (relative stereo) [Compound 515]	100%	2.73^[b]	
O=C(N[C@@H]1CC[C@@H]1c1ccc(F)cc1C(F)(F)F)c1nccnc1Cl (relative stereo) [Compound 516]	100%	2.89^[b]	
O=C(N[C@@H]1CC[C@@H]1c1ccc(F)cc1C(F)(F)F)c1ccccc1[N+](=O)[O-] (relative stereo) [Compound 522]	90%	3.04^[b]	
O=C(N[C@@H]1CC[C@@H]1c1ccc(F)cc1C(F)(F)F)c1cccnc1 (relative stereo) [Compound 523]	90%	2.18^[b]	
O=C(N[C@@H]1CC[C@@H]1c1cc(F)ccc1C(F)(F)F)c1ccccc1Cl (relative stereo) [Compound 528]	100%	3.34^[b]	
O=C(N[C@@H]1C[C@@H]1c1ccc(Cl)cc1)c1nccnc1C(F)(F)F (relative stereo) [Compound 532]	100%	2.68^[b]	logP ([1]; HPLC reversed phase, method [c] pH 7.8): 2.65^[c];
O=C(N[C@@H]1CC[C@@H]1c1c(F)cccc1C(F)(F)F)c1ncccc1Cl (relative stereo) [Compound 537]	100%	2.92^[b]	
O=C(N[C@@H]1CC[C@@H]1c1ccccc1Cl)c1ccccc1[N+](=O)[O-] (relative stereo) [Compound 538]	100%	2.71^[b]	
O=C(N[C@@H]1CC[C@@H]1c1cc(F)ccc1C(F)(F)F)c1ccccc1[N+](=O)[O-] (relative stereo) [Compound 540]	100%	3.07^[b]	
O=C(N[C@@H]1CC[C@@H]1c1cc(F)ccc1C(F)(F)F)c1ccccc1I (relative stereo) [Compound 541]	100%	3.52^[b]	
O=C(N[C@@H]1CC[C@@H]1c1c(F)cccc1C(F)(F)F)c1ccccc1I (relative stereo) [Compound 542]	100%	3.96^[b]	
O=C(N[C@@H]1CC[C@@H]1c1c(F)cccc1C(F)(F)F)c1ncc(C(F)(F)F)cc1Cl (relative stereo) [Compound 543]	90%	4.13^[b]	
O=C(N[C@@H]1CC[C@H]1c1ccccc1Cl)c1sccc1I (relative stereo) [Compound 544]	90%	3.86^[b]	
Cc1nc(C(F)(F)F)c(C(=O)N[C@@H]2CC[C@@H]2c2ccccc2Cl)s1 (relative stereo) [Compound 545]	100%	3.15^[b]	
O=C(N[C@@H]1CC[C@H]1c1ccccc1Cl)c1nccnc1Cl (relative stereo) [Compound 548]	100%	2.81^[b]	
O=C(N[C@@H]1CC[C@@H]1c1cc(F)ccc1C(F)(F)F)c1c(F)cccc1F (relative stereo) [Compound 549]	100%	3.22^[b]	
O=C(N[C@@H]1CC[C@@H]1c1cc(F)ccc1C(F)(F)F)c1ccccc1 (relative stereo) [Compound 550]	100%	3.15^[b]	
O=C(N[C@@H]1CC[C@@H]1c1c(F)cccc1C(F)(F)F)c1ccccc1 (relative stereo) [Compound 551]	100%	3.23^[b]	
O=C(N[C@@H]1CC[C@@H]1c1c(F)cccc1C(F)(F)F)c1ccccc1Cl (relative stereo) [Compound 553]	100%	3.42^[b]	
O=C(N[C@@H]1CC[C@@H]1c1ccccc1Cl)c1cccnc1 (relative stereo) [Compound 555]	90%	1.18^[b]	
O=C(NC1CC1c1ccccc1)c1cccnc1C(F)F (centres unmarked) [Compound 225]	90%		
